From patent US20230183179A1, “NOVEL CELL METABOLISM MODULATING COMPOUNDS AND USES THEREOF” (CRESCENTA BIOSCIENCES, priority 2020, published 2023) come the findings set out here.

Assay [1] addresses T1, His6 tagged human recombinant FABP4 (Homo sapiens, UniProt P15090).
T1 construct: purchased Cayman Chemicals 10009549
Kind of assay: FABP4 TR-FRET assay: displacement of fluorescent fatty acid BODIPY FL C12. The note with it: inhibition of BODIPY FL C12 binding to His6-FABP4; 1.2 μL of 1.085 mM compound in DMSO per well; triplicates, mean percent inhibition. The text has this: Activity of compounds with FABP4 was profiled using a Terbium (Tb) based time resolved fluorescence energy transfer (TR-FRET) assay. The assay measures the compound mediated displacement of the fluorescent fatty acid BODIPY FL C12 (Thermo Fisher; catalog number D3822) from His6 tagged human recombinant FABP4 (His6-FABP4; Cayman Chemicals, catalog number 10009549) via recording the energy transfer from TB donor molecule on anti-His6-tag antibody to acceptor BODIPY moiety. Briefly, compounds and BODIPY FL C12 were prepared at a concentration of 1.085 mM and 4.2 μM, respectively, in DMSO. 1.2 μL of each compound or DMSO (vehicle control) and 1.2 μL of BODIPY FL C12 were added into the wells of a 384-well black polypropylene plate. His6-FABP4 and Tb anti-His6 antibody were prepared in the assay buffer (25 mM Tris/HCl, pH 7.4, 0.4 mg/ml γ-globulins, 0.010% NP-40, 1 mM DTT) at a concentration of 83 nM and 49.6 nM, respectively. The protein and antibody solutions were then mixed at a ratio of 34:7 (v/v) and incubated on ice for 30 minutes. The assay was initiated by adding 41 μL of the resulting protein/antibody solution into the wells containing the compounds and BODIPY FL C12. The plate was centrifuged and incubated at room temperature for 10 min. The TR-FRET signals were recorded using an EnVision Multilabel plate reader (PerkinElmer; TB excitation 320 nm, BODIPY FL C12 emission 520 nm; TB emission 615 nm). Relative fluorescence ratio (520 nm*10,000/615 nm) were used to calculate the compound mediated inhibition of BODIPY C12 FL fatty acid binding to FABP4. The compounds were tested in triplicates and the results were represented as mean percent inhibition (compound*100/DMSO)±standard deviation (SD). Glucose consumption and FABP4 inhibition is shown below in Table 3 below. The compounds showing no inhibition of activity in the TR-FRET assay are marked as N.A. N.D. stands for “not determined”.

The test system of assay [2] is differentiated 3T3-L1 mouse adipocyte cells. Kind of assay: Adipocyte glucose consumption in differentiated 3T3-L1 cells (colorimetric glucose assay of the medium). The class given is cell-based. Conditions: 3T3-L1, 24 h, compound 10 μM, loss of glucose from culture medium, mean fold change (compound/DMSO). The protocol: Activity of compounds on adipocyte glucose consumption was tested in differentiated 3T3-L1 mouse adipocyte cells. 3T3-L1 preadipocytes (ATCC) were routinely cultured in a growth medium composed of DMEM high-glucose (Sigma), 10% FBS (Gibco), 10 U/ml penicillin and 10 μg/ml streptomycin (P/S; Gibco). To induce adipogenic differentiation, a confluent layer of 3T3-L1 cells were incubated with the growth medium containing 2 μM rosiglitazone, 1 μM dexamethasone, 500 μM IBMX, and 1 μg/ml insulin (Sigma). Forty-eight (48) hours later (on day 2) and on days 4 and 6, medium of the cells was replaced with fresh medium containing 1 μg/ml insulin. On days 8 and 10, the medium was refreshed with regular growth medium and addition of insulin was omitted. On day 11, medium of the cells were 10 replaced with fresh medium containing either the indicated compounds (10 μM) or the vehicle in which the compounds were dissolved (DMSO). The final concentration of DMSO was 0.1% (v/v). Growth medium containing 0.1% DMSO was incubated in culture wells containing no cells and used as control. 24 hours later, medium was harvested and subjected to centrifugation at 10,000 g for 5 min. Glucose concentration in the supernatants was determined using a 15 colorimetric assay (Glucose Assay Kit I, Eton Biosciences). Glucose consumption in compound and vehicle treated cells was measured as loss of glucose from the culture medium and represented as mean fold change (compound/DMSO)±standard deviation (SD).

T1 sequence (P15090 whole entry): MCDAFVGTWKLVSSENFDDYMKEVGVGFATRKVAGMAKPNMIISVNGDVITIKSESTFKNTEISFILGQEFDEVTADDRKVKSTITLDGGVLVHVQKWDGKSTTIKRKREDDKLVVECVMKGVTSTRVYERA

For `CCCc1ccc2nc(OCC(=O)O)cc(-c3cccc(C#N)c3)c2c1` [2-([4-(3-cyanophenyl)-6-propylquinolin-2-yl]oxy}acetic acid], the inhibition at 1085 µM (stock) in assay [1] is 34.8%. Besides, in assay [2], the fold induction at 10 µM was found to be 1.06.

Regarding `CCc1ccc2nc(OCC(=O)O)cc(-c3cccc(C(N)=O)c3)c2c1` [2-{[4-(3-carbamoylphenyl)-6-ethylquinolin-2-yl]oxy}acetic acid], the inhibition at 1085 µM (stock) in assay [1] was 30.4%. Further, the fold induction at 10 µM in assay [2] stood at 0.93.

Regarding `CN(CC(=O)O)c1cc(-c2ccccc2)c2cc(CCc3ccc4cccnc4c3)ccc2n1` [2-[methyl({4-phenyl-6-[2-(quinolin-7-yl)ethyl]quinolin-2-yl})amino]acetic acid], the inhibition at 1085 µM (stock) in assay [1] amounted to 43.5%. Moreover, in assay [2], the fold induction at 10 µM came to 1.25.

For `CN(CC(=O)NCC(=O)O)c1cc(-c2ccccc2)c2cc(Cl)ccc2n1` [2-{2-[(6-chloro-4-phenylquinolin-2-yl)(methyl)amino]acetamido}acetic acid], the inhibition at 1085 µM (stock) in assay [1] amounted to 103%. Further, the fold induction at 10 µM in assay [2] was determined as 1.08.

`O=C(O)C1CC(=O)N(c2cc(-c3ccccc3)c3cc(CCc4ccccc4)ccc3n2)C1` (centres unmarked) [5-oxo-1-[4-phenyl-6-(2-phenylethyl)quinolin-2-yl]pyrrolidine-3-carboxylic acid]: the inhibition at 1085 µM (stock) in assay [1] turned out to be 7.89%. The fold induction at 10 µM in assay [2] was found to be 1.24.

On to `CCCCCCc1ccc2nc(N(C)CC(=O)O)cc(-c3ccncc3)c2c1` [2-{[6-hexyl-4-(pyridin-4-yl)quinolin-2-yl](methyl)amino}acetic acid], for which the inhibition at 1085 µM (stock) in assay [1] stood at 51.4%. Besides, in assay [2], the fold induction at 10 µM came to 1.17.

As for `CCCCCCc1ccc2nc(N(c3nnn[nH]3)C3CC3)cc(-c3ccccc3)c2c1` [N-cyclopropyl-6-hexyl-4-phenyl-N-(1H-1,2,3,4-tetrazol-5-yl)quinolin-2-amine], the inhibition at 1085 µM (stock) in assay [1] came out at 84%. Besides, the fold induction at 10 µM in assay [2] is 1.18.

In the case of `CCCCCCc1ccc2nc(N(C)CC(=O)O)ccc2c1` [2-[(6-hexylquinolin-2-yl)(methyl)amino]acetic acid], the inhibition at 1085 µM (stock) in assay [1] was 53.3%. Also, the fold induction at 10 µM in assay [2] amounted to 1.15.

On to `CCCCCCc1ccc2nc(N(C)CC(=O)O)cc(N3CCC(F)(F)CC3)c2c1` [2-{[4-(4,4-difluoropiperidin-1-yl)-6-hexylquinolin-2-yl](methyl)amino}acetic acid], for which, in assay [1], the inhibition at 1085 µM (stock) was found to be 53.7%. Besides, the fold induction at 10 µM in assay [2] amounted to 1.23.

For the compound `CCCCc1ccc2nc(N(C)CC(=O)O)cc(-c3ccccc3O)c2c1` [2-{[6-butyl-4-(2-hydroxyphenyl)quinolin-2-yl](methyl)amino}acetic acid], in assay [1], the inhibition at 1085 µM (stock) is 93.2%. Also, the fold induction at 10 µM in assay [2] stood at 1.19.

For `CCCCCCc1ccc2nc(N(C)CC(=O)O)cc(N3CCC(F)(F)C3)c2c1` [2-{[4-(3,3-difluoropyrrolidin-1-yl)-6-hexylquinolin-2-yl](methyl)amino}acetic acid], the inhibition at 1085 µM (stock) in assay [1] was 50.5%. Moreover, the fold induction at 10 µM in assay [2] worked out at 1.28.

Turning to `CN(CC(=O)O)c1cc(-c2ccccc2)c2cc(CCc3ccc4nccnc4c3)ccc2n1` [2-[methyl({4-phenyl-6-[2-(quinoxalin-6-yl)ethyl]quinolin-2-yl})amino]acetic acid], in assay [1], the inhibition at 1085 µM (stock) was found to be 33.6%. In addition, the fold induction at 10 µM in assay [2] turned out to be 1.33.

Consider `CCCCCc1ccc2nc(N(C)CC(=O)O)cc(-c3cccc(C#N)c3)c2c1` [2-{[4-(3-cyanophenyl)-6-pentylquinolin-2-yl](methyl)amino}acetic acid], for which the inhibition at 1085 µM (stock) in assay [1] amounted to 65.1%. Further, in assay [2], the fold induction at 10 µM was 1.23.

`CCCCc1ccc2nc(N(C)CC(=O)O)cc(-c3ccc(F)cc3)c2c1` [2-{[6-butyl-4-(4-fluorophenyl)quinolin-2-yl](methyl)amino}acetic acid]: the inhibition at 1085 µM (stock) in assay [1] was 58.6%. The fold induction at 10 µM in assay [2] was determined as 1.49.

On to `CCCCCCc1ccc2nc(N(C)CC(=O)O)cc(Oc3cccnc3)c2c1` [2-{[6-hexyl-4-(pyridin-3-yloxy)quinolin-2-yl](methyl)amino}acetic acid], for which the inhibition at 1085 µM (stock) in assay [1] came out at 85%. Further, the fold induction at 10 µM in assay [2] was 1.33.

For `CCCCc1ccc2nc(N(C)CC(=O)O)cc(-c3ccc(C)cc3)c2c1` [2-{[6-butyl-4-(4-methylphenyl)quinolin-2-yl](methyl)amino}acetic acid], the inhibition at 1085 µM (stock) in assay [1] stood at 30.8%. Besides, in assay [2], the fold induction at 10 µM is 1.36.

In the case of `CCCCCCc1ccc2nc(N(C)CC(=O)O)cc(-c3cccnc3)c2c1` [2-{[6-hexyl-4-(pyridin-3-yl)quinolin-2-yl](methyl)amino}acetic acid], the inhibition at 1085 µM (stock) in assay [1] is 71.3%. Further, in assay [2], the fold induction at 10 µM was 1.28.

Regarding `CCCCCCc1ccc2nc(N(C)Cc3nn[nH]n3)cc(-c3ccccc3)c2c1` [6-hexyl-N-methyl-4-phenyl-N-[(2H-1,2,3,4-tetrazol-5-yl)methyl]quinolin-2-amine], in assay [1], the inhibition at 1085 µM (stock) was determined as 37.8%. Besides, the fold induction at 10 µM in assay [2] worked out at 1.52.

In the case of `CCCCCCc1ccc2c(-c3ccccc3)cc(N(C)CC(=O)O)nc2c1` [2-[(7-hexyl-4-phenylquinolin-2-yl)(methyl)amino]acetic acid], in assay [1], the inhibition at 1085 µM (stock) was 25.3%. Further, the fold induction at 10 µM in assay [2] was determined as 1.26.

Take `CCCCc1ccc2nc(N3CCCCC3)cc(-c3ccccc3)c2c1` [6-butyl-4-phenyl-2-(piperidin-1-yl)quinoline]: the inhibition at 1085 µM (stock) in assay [1] stood at 56.5%. In assay [2], the fold induction at 10 µM came to 0.99.

Consider `CCCCCc1ccc2nc(OCC(=O)O)cc(-c3ccccc3)c2c1` [2-[(6-pentyl-4-phenylquinolin-2-yl)oxy]acetic acid], for which the inhibition at 1085 µM (stock) in assay [1] amounted to 55.1%. Also, the fold induction at 10 µM in assay [2] is 1.05.

Take `CCCCc1ccc2nc(N(C)CC(=O)O)cc(-c3ccc(O)cc3)c2c1` [2-{[6-butyl-4-(4-hydroxyphenyl)quinolin-2-yl](methyl)amino}acetic acid]: the inhibition at 1085 µM (stock) in assay [1] stood at 60.5%. The fold induction at 10 µM in assay [2] is 1.26.

As to `CCCCCCc1ccc2nc(N(C)CC(=O)O)cc(-c3ccccc3)c2c1` [2-[(6-hexyl-4-phenylquinolin-2-yl)(methyl)amino]acetic acid], the inhibition at 1085 µM (stock) in assay [1] was 88.2%. The fold induction at 10 µM in assay [2] amounted to 1.41.

Consider `CCc1ccc2nc(N(C)CC(=O)O)cc(-c3ccccc3)c2c1` [2-[(6-ethyl-4-phenylquinolin-2-yl)(methyl)amino]acetic acid], for which the inhibition at 1085 µM (stock) in assay [1] worked out at 103%. In addition, the fold induction at 10 µM in assay [2] was 1.12.

Take `CCCc1ccc2nc(N(C)CC(=O)O)cc(-c3cccc(C#N)c3)c2c1` [2-([4-(3-cyanophenyl)-6-propylquinolin-2-yl](methyl)amino}acetic acid]: in assay [1], the inhibition at 1085 µM (stock) is 27.7%. Besides, the fold induction at 10 µM in assay [2] came out at 1.31.

As for `CCCCCCCCc1ccc2nc(N(C)CC(=O)O)cc(-c3ccccc3)c2c1` [2-[methyl(6-octyl-4-phenylquinolin-2-yl)amino]acetic acid], the inhibition at 1085 µM (stock) in assay [1] turned out to be 99.3%. For the same compound, the fold induction at 10 µM in assay [2] worked out at 1.52.

On to `CN(CC(=O)O)c1cc(-c2ccccc2)c2cc(CCc3ccnc4[nH]ccc34)ccc2n1` [2-{methyl[4-phenyl-6-(2-{1H-pyrrolo[2,3-b]pyridin-4-yl}ethyl)quinolin-2-yl]amino}acetic acid], for which, in assay [1], the inhibition at 1085 µM (stock) was determined as 29.8%. The fold induction at 10 µM in assay [2] came to 1.26.

As for `CCCCc1ccc2nc(OCC(=O)O)cc(-c3ccccc3)c2c1` [2-[(6-butyl-4-phenylquinolin-2-yl)oxy]acetic acid], the inhibition at 1085 µM (stock) in assay [1] was 11.3%. In addition, the fold induction at 10 µM in assay [2] turned out to be 1.12.
